In article PMC2365101, “Anti-Inflammatory Activity of (Polyphenolic)-Sulfonates and Their Sodium Salts in Rodents” (Metal-Based Drugs, 1998):

Legend:
[1] = biological target: T1, IL-2 high affinity receptor on HUT78 T lymphoma cell membrane (Homo sapiens, UniProt P01589+P14784); test: 125I-IL-2 high affinity binding to HuT78 T lymphoma cells; details: for 125I-IL-2 binding, Percent of Control: N=6; for reduction of IL-2 high affinity binding: 5 hr
T1 construct: host or cells: HuT78 T lymphoma cells
T1 sequence (P01589 22-272): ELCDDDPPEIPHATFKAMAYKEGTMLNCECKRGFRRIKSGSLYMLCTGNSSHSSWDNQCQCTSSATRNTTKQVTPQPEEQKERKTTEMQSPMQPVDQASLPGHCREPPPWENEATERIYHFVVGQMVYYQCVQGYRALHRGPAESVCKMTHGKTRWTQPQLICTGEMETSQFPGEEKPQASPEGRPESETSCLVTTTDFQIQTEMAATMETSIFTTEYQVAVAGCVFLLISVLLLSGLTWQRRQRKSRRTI
T1 sequence (P14784 27-551): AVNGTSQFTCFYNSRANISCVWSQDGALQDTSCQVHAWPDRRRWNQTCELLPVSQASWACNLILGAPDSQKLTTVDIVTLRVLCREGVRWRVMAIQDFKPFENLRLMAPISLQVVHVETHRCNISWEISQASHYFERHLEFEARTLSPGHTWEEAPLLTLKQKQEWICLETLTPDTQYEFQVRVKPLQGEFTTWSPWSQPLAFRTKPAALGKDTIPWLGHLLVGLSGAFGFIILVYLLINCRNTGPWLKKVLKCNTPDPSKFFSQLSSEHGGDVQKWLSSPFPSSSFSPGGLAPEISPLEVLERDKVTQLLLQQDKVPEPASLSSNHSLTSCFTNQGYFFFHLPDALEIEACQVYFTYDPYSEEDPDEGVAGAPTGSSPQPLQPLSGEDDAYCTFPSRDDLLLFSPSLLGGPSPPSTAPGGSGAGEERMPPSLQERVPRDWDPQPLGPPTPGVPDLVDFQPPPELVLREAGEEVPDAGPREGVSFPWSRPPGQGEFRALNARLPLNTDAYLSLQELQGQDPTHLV

[2] = tested on: RPMI 1788 leukocytes adhesion to L929 fibroblasts; test: Adhesion of human leukocytes RPMI-1788 to confluent L929 fibroblasts; format: cell-based; details: for Adhesion, Percent of Control: N=6; for reducing the adhesion of human leukocytes / reducing significantly the adhesion of human leukocytes: 5 to 50 μM; for reducing the adhesion of human leukocytes: at 2 and 5 hr; for reducing significantly the adhesion of human leukocytes: at 60 and 90 min
[3] = tested on: CF1 male mice, LPS Salmonella abortus equi induced death; test: Protection against septic shock (LPS induced endotoxic shock); format: in vivo; details: for Percent Survival at 52 hr: LPS 10 mg/kg, CF1 male mice, N=6; for protection from LPS induced death: 16 mg/kg
Text: Few reports in the literature indicate interaction at these receptor sites other than by peptides or antibodies. […] Blocking these receptors is desirable because the entire inflammation cascade of events is triggered by the early release of TNFa and IL-1. […] Radioisotopes were obtained from New England Nuclear [Dupont, Boston, MA] and substrates and co- factors were obtained from Sigma Chemical Co. [St. Louis, MO]. […] Cell lines were obtained from American Type Culture Collection [Rockville, MD]. In Vivo Tests Anti-inflammatory screen in mice: Male CF male mice weighing 28-32g obtained from Jackson Lab. [Bar Harbor, […]] were used to screen agents at 8 or 16 mg/kg intraperitoneal [I.P.] x 2 administered 3 hr and 30 min prior to administering the irritant, according to Winter's protocol. Evaluation of the induced edema was made by injecting 2% carrageenan in 0.9% saline into the plantar region of the foot. The opposite foot injected with 0.9% isotonic saline was used as a base line. […] Salmonella abortus equi [Lot # 69F4003] […] Drugs from 2 to 16 mg/kg, I.P. were administered 2 hr prior and 2 hr post-injection of the LPS and then subsequently for every 24 hr for the length ofthe animals' lives. Deaths were recorded every 12 hr and continued for 96 hr. […] In vitro TNFa andIL-1 Measurements and Cellular Regulation IC-21 mouse macrophages were maintained in RPMI-1640 + 10% FCS + P/S. After the cells had grown to confluency, E. coli LPS at 10 Ixg/ml was added to the medium. Agents were incubated at 12.5 to 100 µM final concentration for 18 hr. The medium (100 btl) was collected for TNFCt determinations. Interleukin-1 [IL-1] release was determined using P388D1 cells which were maintained in RPMI-1640 + 10% FCS + P/S. The L929 bioassay was used to quantitate the TNF and the IL-1 levels. The L929 mouse fibroblasts were grown in DMEM + 10% FCS + P/S to confluency in 96 well plates and incubated with 100 tl ofmedium from […] or P388D cells after 18 hr. The cells were stained with 0.2% crystal violet in 20% MeOH and read at 580 nm using a Molecular Devices scanner (SOFT-max program). High Affinity Binding to Receptors on L929-106 Cells Two laCi of 125I-TNFct (human recombinant, 30 mCi/tg New England Nuclear) or 125I-IL-1 (70-120[.t Ci/lxg,New England Nuclear) was added to confluency L929 cells for 90 min or 5 hr, respectively with 25, 50 and 100 tM of the test compounds 12]. The cells were washed repeatedly with isotonic saline, pH.7.2 and aliquots counted. Prostaglandin cylcooxygenase activity Mouse J774AI macrophages maintained in Dulbecco's modified Eagle's medium + 15% FCS + P/S. Cells (5 x 106) were incubated with agents (5 to 100 ].tM final concentration) and 3H-arachidonic acid (100 Ci/mol) for 60 min at 37C in a CO2 incubator. The reaction was terminated with 2N HCI, the mixture extracted 2 X with ether, and the organic layer evaporated.

COc1c2cc(S(=O)(=O)[O-])cc1Cc1cc(S(=O)(=O)[O-])cc(c1OC)Cc1cc(S(=O)(=O)[O-])cc(c1OC)Cc1cc(S(=O)(=O)[O-])cc(c1OC)Cc1cc(S(=O)(=O)[O-])cc(c1OC)Cc1cc(S(=O)(=O)[O-])cc(c1OC)C2.[Na+].[Na+].[Na+].[Na+].[Na+].[Na+] [Compound 6]
125I-IL-2 binding, Percent of Control ([1]; 5 μM, 2 Hours): 142 + 6% of Control | 125I-IL-2 binding, Percent of Control ([1]; 5 μM, 5 Hours): 100 + 6% of Control | 125I-IL-2 binding, Percent of Control ([1]; 12.5 μM, 2 Hours): 115 + 5% of Control | 125I-IL-2 binding, Percent of Control ([1]; 12.5 μM, 5 Hours): 92 + 6% of Control | 125I-IL-2 binding, Percent of Control ([1]; 25 μM, 2 Hours): 85 + 5% of Control | 125I-IL-2 binding, Percent of Control ([1]; 25 μM, 5 Hours): 78 + 5% of Control | 125I-IL-2 binding, Percent of Control ([1]; 50 μM, 2 Hours): 81 + 4% of Control | 125I-IL-2 binding, Percent of Control ([1]; 50 μM, 5 Hours): 55 + 4% of Control | reduction of IL-2 high affinity binding ([1]; 50 μM): 45% | Adhesion, Percent of Control ([2]; 5 μM, 60 min): 46 + 4% of Control | Adhesion, Percent of Control ([2]; 5 μM, 90 min): 62 + 5% of Control | Adhesion, Percent of Control ([2]; 12.5 μM, 2 Hours): 125 + 5% of Control | Adhesion, Percent of Control ([2]; 12.5 μM, 5 Hours): 92 + 4% of Control | Adhesion, Percent of Control ([2]; 12.5 μM, 60 min): 49 + 6% of Control | Adhesion, Percent of Control ([2]; 12.5 μM, 90 min): 55 + 6% of Control | Adhesion, Percent of Control ([2]; 25 μM, 2 Hours): 100 + 6% of Control | Adhesion, Percent of Control ([2]; 25 μM, 5 Hours): 95 + 5% of Control | Adhesion, Percent of Control ([2]; 25 μM, 60 min): 30 + 3% of Control | Adhesion, Percent of Control ([2]; 25 μM, 90 min): 71 + 5% of Control | Adhesion, Percent of Control ([2]; 50 μM, 2 Hours): 108 + 6% of Control | Adhesion, Percent of Control ([2]; 50 μM, 5 Hours): 88+ 7% of Control | Adhesion, Percent of Control ([2]; 50 μM, 60 min): 41 + 5% of Control | reducing the adhesion of human leukocytes [2]: not effective | reducing significantly the adhesion of human leukocytes [2]: effective | Percent Survival at 52 hr ([3]; 8 mg/Kg I.P.): 50% | Percent Survival at 52 hr ([3]; 16 mg/Kg I.P.): 100% | protection from LPS induced death [3]: 100%

CC(=O)Oc1c2cc(S(=O)(=O)[O-])cc1Cc1cc(S(=O)(=O)[O-])cc(c1OC(C)=O)Cc1cc(S(=O)(=O)[O-])cc(c1OC(C)=O)Cc1cc(S(=O)(=O)[O-])cc(c1OC(C)=O)Cc1cc(S(=O)(=O)[O-])cc(c1OC(C)=O)Cc1cc(S(=O)(=O)[O-])cc(c1OC(C)=O)Cc1cc(S(=O)(=O)[O-])cc(c1OC(C)=O)Cc1cc(S(=O)(=O)[O-])cc(c1OC(C)=O)C2.[Na+].[Na+].[Na+].[Na+].[Na+].[Na+].[Na+].[Na+] [Compound 8]
125I-IL-2 binding, Percent of Control ([1]; 5 μM, 2 Hours): 138 + 5% of Control | 125I-IL-2 binding, Percent of Control ([1]; 5 μM, 5 Hours): 85 + 5% of Control | 125I-IL-2 binding, Percent of Control ([1]; 12.5 μM, 2 Hours): 215 + 7% of Control | 125I-IL-2 binding, Percent of Control ([1]; 12.5 μM, 5 Hours): 78 + 4% of Control | 125I-IL-2 binding, Percent of Control ([1]; 25 μM, 2 Hours): 88 + 6% of Control | 125I-IL-2 binding, Percent of Control ([1]; 25 μM, 5 Hours): 59 + 5% of Control | 125I-IL-2 binding, Percent of Control ([1]; 50 μM, 2 Hours): 38 + 4% of Control | 125I-IL-2 binding, Percent of Control ([1]; 50 μM, 5 Hours): 55 + 6% of Control | reduction of IL-2 binding ([1]; 50 μM, 2 hr): 62% | reduction of IL-2 high affinity binding ([1]; 50 μM): 45% | Adhesion, Percent of Control ([2]; 5 μM, 60 min): 49 + 7% of Control | Adhesion, Percent of Control ([2]; 5 μM, 90 min): 108+6% of Control | Adhesion, Percent of Control ([2]; 12.5 μM, 60 min): 40+ 5% of Control | Adhesion, Percent of Control ([2]; 12.5 μM, 90 min): 65 +6% of Control | Adhesion, Percent of Control ([2]; 25 μM, 2 Hours): 108+4% of Control | Adhesion, Percent of Control ([2]; 25 μM, 60 min): 41 +5% of Control | Adhesion, Percent of Control ([2]; 25 μM, 90 min): 63+3% of Control | Adhesion, Percent of Control ([2]; 50 μM, 2 Hours): 116+6% of Control | Adhesion, Percent of Control ([2]; 50 μM, 60 min): 55+4% of Control | reducing the adhesion of human leukocytes [2]: not effective | reducing significantly the adhesion of human leukocytes [2]: effective | Percent Survival at 52 hr ([3]; 2 mg/kg I.P.): 67% | Percent Survival at 52 hr ([3]; 4 mg/Kg I.P.): 67% | Percent Survival at 52 hr ([3]; 8 mg/Kg I.P.): 67% | Percent Survival at 52 hr ([3]; 16 mg/Kg I.P.): 83% | protection from LPS induced death [3]: 83%

Pentosan sulfate [Pentosan polysulfate, reference compound]
125I-IL-2 binding, Percent of Control ([1]; 5 μM, 2 Hours): 362 + 9% of Control | 125I-IL-2 binding, Percent of Control ([1]; 5 μM, 5 Hours): 148 + 5% of Control | 125I-IL-2 binding, Percent of Control ([1]; 12.5 μM, 2 Hours): 188 + 5% of Control | 125I-IL-2 binding, Percent of Control ([1]; 12.5 μM, 5 Hours): 89 + 6% of Control | 125I-IL-2 binding, Percent of Control ([1]; 25 μM, 2 Hours): 123 + 7% of Control | 125I-IL-2 binding, Percent of Control ([1]; 25 μM, 5 Hours): 81 + 6% of Control | 125I-IL-2 binding, Percent of Control ([1]; 50 μM, 2 Hours): 104 + 6% of Control | 125I-IL-2 binding, Percent of Control ([1]; 50 μM, 5 Hours): 55 + 4% of Control | reduction of IL-2 high affinity binding ([1]; 50 μM): 45% | Adhesion, Percent of Control ([2]; 12.5 μM, 2 Hours): 83+5% of Control | Adhesion, Percent of Control ([2]; 12.5 μM, 5 Hours): 82+5% of Control | Adhesion, Percent of Control ([2]; 25 μM, 2 Hours): 116+6% of Control | Adhesion, Percent of Control ([2]; 25 μM, 5 Hours): 82+6% of Control | Adhesion, Percent of Control ([2]; 50 μM, 2 Hours): 147+6% of Control | Percent Survival at 52 hr ([3]; 8 mg/Kg I.P.): 67% | Percent Survival at 52 hr ([3]; 16 mg/Kg I.P.): 83% | protection from LPS induced death [3]: 83%
